From patent US6780994B2, “Phthalimido arylpiperazines useful in the treatment of benign prostatic hyperplasia” (Ortho-McNeil Pharmaceutical, Inc., priority 1998, dated 2004)

Each compound was assayed against T1, α1a-AR (Homo sapiens, UniProt P35348) (assay: radioligand ([125I]-HEAT) receptor binding assay, COS cell membranes expressing cloned receptor). Settings: [125I]-HEAT 50 pM, 1 hour room temperature.
T1 construct: expressed in transfected cells; host or cells: COS cells, pcDNA3 vector, transient DEAE-dextran transfection
T1 sequence (P35348 1-466): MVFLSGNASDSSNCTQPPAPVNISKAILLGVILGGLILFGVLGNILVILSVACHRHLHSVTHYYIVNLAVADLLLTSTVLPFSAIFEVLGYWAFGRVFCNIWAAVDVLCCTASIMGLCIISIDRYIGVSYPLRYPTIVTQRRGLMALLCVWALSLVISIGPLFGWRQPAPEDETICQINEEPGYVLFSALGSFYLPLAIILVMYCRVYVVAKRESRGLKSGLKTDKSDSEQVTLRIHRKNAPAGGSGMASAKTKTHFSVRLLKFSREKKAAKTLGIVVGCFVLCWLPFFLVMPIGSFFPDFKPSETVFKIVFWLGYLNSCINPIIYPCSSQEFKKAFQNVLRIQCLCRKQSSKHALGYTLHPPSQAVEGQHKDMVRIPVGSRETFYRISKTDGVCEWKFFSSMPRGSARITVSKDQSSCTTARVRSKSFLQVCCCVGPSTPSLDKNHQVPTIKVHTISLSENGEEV
Description: The first assay tested the ability of compounds of Formula I to bind to membrane bound receptors α1a-AR, α1b-AR and α1d-AR.
The DNA sequences of the three cloned human α1-AR subtypes have been published. […] We used published DNA sequence information to design primers for use in RT-PCR amplification of each subtype to obtain cloned cDNAs. Human poly A+ RNA was obtained from commercially available sources and included hippocampus and prostate samples, sources which have been cited in the literature. For the primary screen a radioligand binding assay was used which employed membrane preparations from cells expressing the individual cloned receptor cDNAs. […] Each α1 receptor subtype was cloned from poly A+ RNA by the standard method of reverse transcription-polymerase chain reaction (RT-PCR). The following sources of polyA+ RNA were used for the cloning of the α1 receptor subtypes: α1a-AR, human hippocampus and prostate, α1b-AR, human hippocampus, α1d-AR, human hippocampus. The resulting cDNAs were cloned into the pcDNA3 mammalian expression vector (Invitrogen Corp., San Diego Calif.). Each DNA was sequenced for verification and to detect any possible mutations introduced during the amplification process. Any deviation in sequence from the published consensus for each receptor subtype was corrected by site-directed mutagenesis.
The three α1-AR subtypes (a, b, d) were transfected into COS cells using a standard DEAE-dextran procedure with a chloroquine shock. […] Approximately 72 hours post-transfection, the cells were harvested and COS membranes were prepared. Transfected COS cells from 25 plates (100 mm) were scraped and suspended in 15 mL of TE buffer (50 mM Tris-HCl, 5 mM EDTA, pH 7.4). The suspension was disrupted with a homogenizer. It was then centrifuged at 1000× g for 10 minutes at 4° C. […] The pellet was resuspended in 5 mL TNE buffer (50 mM Tris-HCl, 5 mM EDTA, 150 mM NaCl, pH 7.4). The resulting membrane preparation was aliquoted and stored at −70° C. The protein concentration was determined following membrane solubilization with TritonX-100.
The ability of each compound to bind to each of the α1-AR subtypes was assessed in a receptor binding assay. […] The plate was incubated for 1 hour at room temperature and the reaction mixtures were filtered through a Packard GF/C Unifilter filter plate. The filter plate was dried for 1 hour in a vacuum oven. Scintillation fluid ([…]) was added to each well, and the filter plate was counted in a Packard Topcount scintillation counter. Data was analyzed using GraphPad Prism software.
`CC(C)Oc1ccccc1N1CCN(CCCNC(=O)c2ccc3c(c2)C(=O)N(c2cccc(F)c2)C3=O)CC1` [Compound 6] was tested, and the IC50 was 0.41 nM. In the case of `CC(C)Oc1ccccc1N1CCN(CC(O)CNC(=O)c2ccc3c(c2)C(=O)N(c2cccc(C(F)(F)F)c2)C3=O)CC1` (stereo not shown) [Compound 57], the IC50 is reported as 0.74 nM. In the case of `CC(C)Oc1ccccc1N1CCN(CC(O)CNC(=O)c2ccc3c(c2)C(=O)N(c2ccc(Cl)c(Cl)c2)C3=O)CC1` (stereo not shown) [Compound 56], the IC50 is reported as 0.81 nM. `CC(C)Oc1ccccc1N1CCN(CC(O)CNC(=O)c2ccc3c(c2)C(=O)N(c2ccc(C(C)(C)C)cc2)C3=O)CC1` (stereo not shown) [Compound 41] showed an IC50 of 3.5 nM. With `COC(CNC(=O)c1ccc2c(c1)C(=O)N(c1cccc(F)c1)C2=O)CN1CCN(c2ccccc2OC(C)C)CC1` (stereo not shown) [Compound 14] the IC50 was 7 nM. `CC(C)Oc1ccccc1N1CCN(C[C@@H](O)CNC(=O)c2ccc3c(c2)C(=O)N(c2cccc(F)c2)C3=O)CC1` [Compound 9] showed an IC50 of 1 nM. In the case of `COc1ccccc1N1C(=O)c2ccc(C(=O)NCC(O)CN3CCN(c4ccccc4OC(C)C)CC3)cc2C1=O` (stereo not shown) [Compound 26], the IC50 is reported as 1.6 nM. `CC(=O)c1ccc(N2C(=O)c3ccc(C(=O)NCC(O)CN4CCN(c5ccccc5OC(C)C)CC4)cc3C2=O)cc1` (stereo not shown) [Compound 48] gave an IC50 of 1 nM. With `CC(C)Oc1ccccc1N1CCN(CC(O)CNC(=O)c2ccc3c(c2)C(=O)N(c2cc(F)cc(F)c2)C3=O)CC1` (stereo not shown) [Compound 29] the IC50 was 0.89 nM. `CC(C)Oc1ccccc1N1CCN(CC(O)CNC(=O)c2ccc3c(c2)C(=O)N(c2ccc([N+](=O)[O-])cc2)C3=O)CC1` (stereo not shown) [Compound 30] gave an IC50 of 1.8 nM. Work on `Cc1ccc(N2C(=O)c3ccc(C(=O)NCC(O)CN4CCN(c5ccccc5OC(C)C)CC4)cc3C2=O)cc1` (stereo not shown) [Compound 52] yielded an IC50 of 0.66 nM. With `CC(C)Oc1ccccc1N1CCN(CC(O)CNC(=O)c2ccc3c(c2)C(=O)N(c2ccc(F)cc2)C3=O)CC1` (stereo not shown) [Compound 50] the IC50 was 1.5 nM. `CC(C)Oc1ccccc1N1CCN(CC(O)CNC(=O)c2ccc3c(c2)C(=O)N(c2cccnc2)C3=O)CC1` (stereo not shown) [Compound 11] showed an IC50 of 1.9 nM. `COc1ccc(N2C(=O)c3ccc(C(=O)NCC(O)CN4CCN(c5ccccc5OC(C)C)CC4)cc3C2=O)cc1OC` (stereo not shown) [Compound 38] gave an IC50 of 0.93 nM. `CC(C)Oc1ccccc1N1CCN(CC(O)CNC(=O)c2ccc3c(c2)C(=O)N(c2ccccc2)C3=O)CC1` (stereo not shown) [Compound 51] gave an IC50 of 0.9 nM. Compound `CC(C)Oc1ccccc1N1CCN(C[C@@H](O)CNC(=O)c2ccc3c(c2)C(=O)N(c2ccc(N(C)C)cc2)C3=O)CC1` [Compound 21, (S)-2-[4-(dimethylamino)phenyl]-2,3-dihydro-N-[2-hydroxy-3-[4-[2-(1-methylethoxy)phenyl]-1-piperazinyl]propyl]-1,3-dioxo-1H-isoindole-5-carboxamide] has an IC50 of 0.36 nM. `CC(C)Oc1ccccc1N1CCN(CC(O)CNC(=O)c2ccc3c(c2)C(=O)N(c2cccc(F)c2)C3=O)CC1` (racemic) [Compound 4] gave an IC50 of 1.5 nM. Compound `Cc1ccc(N2C(=O)c3ccc(C(=O)NCCCN4CCN(c5ccccc5OC(C)C)CC4)cc3C2=O)cc1` [Compound 46] has an IC50 of 0.1 nM. `CC(C)Oc1ccccc1N1CCN(CC(O)CNC(=O)c2ccc3c(c2)C(=O)N(c2ccc(Cl)cc2)C3=O)CC1` (stereo not shown) [Compound 53] showed an IC50 of 0.95 nM. `CC(C)Oc1ccccc1N1CCN(CC(O)CNC(=O)c2ccc3c(c2)C(=O)N(c2ccc(O)cc2)C3=O)CC1` (stereo not shown) [Compound 58] was tested, and the IC50 was 0.88 nM. `Cc1ccc(N2C(=O)c3ccc(C(=O)NCC(O)CN4CCN(c5ccccc5OC(C)C)CC4)cc3C2=O)cc1C` (stereo not shown) [Compound 39] showed an IC50 of 0.44 nM. `COc1ccc(N2C(=O)c3ccc(C(=O)NCCCN4CCN(c5ccccc5OC(C)C)CC4)cc3C2=O)cc1` [Compound 45] showed an IC50 of 0.11 nM. `CC(C)Oc1ccccc1N1CCN(CCCNC(=O)c2ccc3c(c2)C(=O)N(c2ccc(N(C)C)cc2)C3=O)CC1` [Compound 44] was tested, and the IC50 was 0.18 nM. `CCOc1ccccc1N1CCN(CC(O)CNC(=O)c2ccc3c(c2)C(=O)N(c2cccc(F)c2)C3=O)CC1` (stereo not shown) [Compound 42] showed an IC50 of 4.25 nM. `Cc1cccc(N2C(=O)c3ccc(C(=O)NCC(O)CN4CCN(c5ccccc5OC(C)C)CC4)cc3C2=O)c1` (stereo not shown) [Compound 49] gave an IC50 of 0.9 nM. In the case of `CC(C)Oc1ccccc1N1CCN(CC(O)CNC(=O)c2ccc3c(c2)C(=O)N(c2ccc(O)cc2)C3=O)CC1` (single isomer, unassigned) [Compound 35], the IC50 is reported as 0.46 nM. With `CC(C)Oc1ccccc1N1CCN(CC(O)CNC(=O)c2ccc3c(c2)C(=O)N(c2cccc(Cl)c2)C3=O)CC1` (stereo not shown) [Compound 54] the IC50 was 0.73 nM. `CC(C)Oc1ccccc1N1CCN(CC(O)CNC(=O)c2ccc3c(c2)C(=O)N(c2ccc(N(C)C)cc2)C3=O)CC1` (stereo not shown) [Compound 28] showed an IC50 of 0.8 nM. `CC(C)Oc1ccccc1N1CCN(C[C@H](O)CNC(=O)c2ccc3c(c2)C(=O)N(c2cccc(F)c2)C3=O)CC1` [Compound 27] gave an IC50 of 8 nM. In the case of `CC(C)Oc1ccccc1N1CCN(CCCNC(=O)c2ccc3c(c2)C(=O)N(c2ccc(O)cc2)C3=O)CC1` [Compound 47], the IC50 is reported as 0.2 nM. Work on `COc1ccccc1N1CCN(CC(O)CNC(=O)c2ccc3c(c2)C(=O)N(c2cccc(F)c2)C3=O)CC1` (stereo not shown) [Compound 43] yielded an IC50 of 22 nM.
